Values quoted from earlier work in patent US9540355B2, “Irciniastatin analogues” (priority 2013, dated 2017).

Assays:
HL-60(TB) = details: leukemia HL-60(TB); read-out: LC50 (the source's name); cited from earlier work
MDA-MB-435 = details: breast cancer MDA-MB-435; read-out: LC50 (the source's name); cited from earlier work
CCRF-CEM = details: leukemia CCRF-CEM; cited from earlier work
T-47D = details: breast cancer T-47D; read-out: LC50 (the source's name); cited from earlier work
LOX IMVI = details: melanoma LOX IMVI; read-out: LC50 (the source's name); cited from earlier work
MOLT-4 = details: leukemia MOLT-4; read-out: LC50 (the source's name); cited from earlier work
[1] = test system: human umbilical vein endothelial cells (HUVEC); details: normal endothelial HUVEC; cited from earlier work
NCI-H460 = details: lung NCI-H460; cited from earlier work
SK-MEL-2 = details: melanoma SK-MEL-2; read-out: LC50 (the source's name); cited from earlier work
[2] = test system: panel of 60 human cancer cell lines; details: cited from earlier work

In the case of `C=C(C)C[C@H](OC)[C@H](O)C(=O)N[C@@H](OC)[C@@H]1C[C@@H](O)C(C)(C)[C@@H](C[C@H](O)[C@@H](C)[C@H]2Cc3c(C)c(O)cc(O)c3C(=O)O2)O1` [Irciniastatin A, (+)-Irciniastatin A], the CC50 (HL-60(TB)) is listed as over 25 µM, the CC50 (MDA-MB-435) is listed as under 0.0025 µM and the LC50 (CCRF-CEM) is listed as over 25 µM. For the same molecule, the CC50 (T-47D) was 13.6 µM, the CC50 (LOX IMVI) was over 25 µM and the CC50 (MOLT-4) was over 25 µM. The “Growth Inhibition of Cancer Cell Lines (GI50)” value [1] was under 0.5 ng/mL, the “Growth Inhibition of Cancer Cell Lines (GI50)” value (NCI-H460) was under 0.1 ng/mL and the CC50 (SK-MEL-2) was over 25 µM. The “activity differential as compared to other cell lines within their respective subsets” value ([2]; MDA-MB-35, SK-MEL-28, UACC-62, HCT-116 versus other lines of the subset) was “greater than 10,000 fold” and the activities ([2]; MDA-MB-35 breast cancer, SK-MEL-28 and UACC-62 melanoma, HCT-116 colon cancer cell lines) was “low nanomolar range”.
